Laboratory results from patent US20060154243A1 (priority 2003, published 2006).

Tested on: control serum LUMC (pooled serum of ten healthy hospital workers)
Assay type: binding, human

In order of rising “Control serum LUMC linear peptides” value:
1. FWFSLEIQDLEEPCT  0.3
2. LCFLAFLLFLVLIML  0.4
3. LFLVLIMLIIFWFSL  0.4
4. LIDFYLCFLAFLLFL  0.4
5. LLFLVLIMLIIFWFS  0.4
6. YLCFLAFLLFLVLIM  0.4
7. FSLEIQDLEEPCTKV  0.6
8. NELTLIDFYLCFLAF  0.6
9. IFWFSLEIQDLEEPC  0.7
10. IIFWFSLEIQDLEEP  0.7
11. IMLIIFWFSLEIQDL  0.7
12. VLIMLIIFWFSLEIQ  0.7
13. LTLIDFYLCFLAFLL  0.8
14. LVLIMLIIFWFSLEI  0.8
15. TLIDFYLCFLAFLLF  0.8
16. MNELTLIDFYLCFLA  1.1

In order of falling “Control serum LUMC looped peptides” value:
1. MNELTLIDFYLCFLA  0.9
2. NELTLIDFYLCFLAF  0.9
3. FWFSLEIQDLEEPCT  0.8
4. IFWFSLEIQDLEEPC  0.8
5. IIFWFSLEIQDLEEP  0.8
6. TLIDFYLCFLAFLLF  0.8
7. YLCFLAFLLFLVLIM  0.8
8. FSLEIQDLEEPCTKV  0.7
9. LIDFYLCFLAFLLFL  0.7
10. LTLIDFYLCFLAFLL  0.7
11. IMLIIFWFSLEIQDL  0.4
12. LCFLAFLLFLVLIML  0.4
13. LFLVLIMLIIFWFSL  0.4
14. LLFLVLIMLIIFWFS  0.4
15. VLIMLIIFWFSLEIQ  0.4
16. LVLIMLIIFWFSLEI  0.3

Tested on: control serum Blood-bank (commercial negative donor pooled serum)
Assay type: binding, human

In order of rising “Control Serum Blood-Bank Looped peptides” value:
1. TLIDFYLCFLAFLLF  0.4
2. LIDFYLCFLAFLLFL  0.5
3. LTLIDFYLCFLAFLL  0.5
4. MNELTLIDFYLCFLA  0.5
5. NELTLIDFYLCFLAF  0.5
6. IMLIIFWFSLEIQDL  0.6
7. YLCFLAFLLFLVLIM  0.6
8. LCFLAFLLFLVLIML  0.7
9. LVLIMLIIFWFSLEI  0.7
10. VLIMLIIFWFSLEIQ  0.7
11. IFWFSLEIQDLEEPC  0.8
12. LFLVLIMLIIFWFSL  0.8
13. IIFWFSLEIQDLEEP  0.9
14. LLFLVLIMLIIFWFS  0.9
15. FSLEIQDLEEPCTKV  1.0
16. FWFSLEIQDLEEPCT  1.1

In order of falling “Control serum Blood-bank linear peptides” value:
1. IIFWFSLEIQDLEEP  0.9
2. LLFLVLIMLIIFWFS  0.9
3. LTLIDFYLCFLAFLL  0.9
4. LVLIMLIIFWFSLEI  0.9
5. IFWFSLEIQDLEEPC  0.8
6. IMLIIFWFSLEIQDL  0.8
7. LFLVLIMLIIFWFSL  0.8
8. VLIMLIIFWFSLEIQ  0.8
9. YLCFLAFLLFLVLIM  0.8
10. FSLEIQDLEEPCTKV  0.7
11. LCFLAFLLFLVLIML  0.7
12. LIDFYLCFLAFLLFL  0.7
13. MNELTLIDFYLCFLA  0.7
14. TLIDFYLCFLAFLLF  0.7
15. NELTLIDFYLCFLAF  0.6
16. FWFSLEIQDLEEPCT  0.5

Tested on: sera SARS-green, SARS-yellow, 1a, 1b, 2, 6, 37, 62 and London
Assay type: binding, human

With ATTEELPDEFVVVTA the “Recognition of the peptide by sera of individuals infected by SARS-CoV, form recognized” value (“Recognition of the peptide” for short) was “recognized in linear and in looped form”.
In the case of CICTVVQRCASNKPH, the “Recognition of the peptide” value was “recognized in linear and in looped form”.
With CSCICTVVQRCASNK the “Recognition of the peptide” value was “recognized in linear and in looped form”.
For DPNQTNVVPPALHLV, the “Recognition of the peptide” value was “recognized in linear and in looped form”.
FSLEIQDLEEPCTKV was tested, and the “Recognition of the peptide” value was “recognized in linear and in looped form”.
With FWFSLEIQDLEEPCT the “Recognition of the peptide” value was “recognized in linear and in looped form”.
For IFWFSLEIQDLEEPC, the “Recognition of the peptide” value was “recognized in linear and in looped form”.
IIFWFSLEIQDLEEP was tested, and the “Recognition of the peptide” value was “recognized in linear and in looped form”.
IMLIIFWFSLEIQDL was tested, and the “Recognition of the peptide” value was “recognized in linear and in looped form”.
ITRMEDAMGQGQNSA was tested, and the “Recognition of the peptide” value was “only recognized in looped form”.
With KLATTEELPDEFVVV the “Recognition of the peptide” value was “recognized in linear and in looped form”.
In the case of LATTEELPDEFVVVT, the “Recognition of the peptide” value was “recognized in linear and in looped form”.
In the case of LTITRMEDAMGQGQN, the “Recognition of the peptide” value was “only recognized in looped form”.
For MEDAMGQGQNSADPK, the “Recognition of the peptide” value was “only recognized in looped form”.
For MTKLATTEELPDEFV, the “Recognition of the peptide” value was “recognized in linear and in looped form”.
In the case of NQTNVVPPALHLVDP, the “Recognition of the peptide” value was “recognized in linear and in looped form”.
For PALHLVDPQIQLTIT, the “Recognition of the peptide” value was “recognized in linear and in looped form”.
PNQTNVVPPALHLVD was tested, and the “Recognition of the peptide” value was “recognized in linear and in looped form”.
For PPALHLVDPQIQLTI, the “Recognition of the peptide” value was “recognized in linear and in looped form”.
For QMTKLATTEELPDEF, the “Recognition of the peptide” value was “recognized in linear and in looped form”.
QRCASNKPHVLEDPC was tested, and the “Recognition of the peptide” value was “recognized in linear and in looped form”.
QTNVVPPALHLVDPQ was tested, and the “Recognition of the peptide” value was “recognized in linear and in looped form”.
For RCASNKPHVLEDPCK, the “Recognition of the peptide” value was “recognized in linear and in looped form”.
In the case of RMEDAMGQGQNSADP, the “Recognition of the peptide” value was “only recognized in looped form”.
In the case of SCICTVVQRCASNKP, the “Recognition of the peptide” value was “recognized in linear and in looped form”.
TITRMEDAMGQGQNS was tested, and the “Recognition of the peptide” value was “only recognized in looped form”.
For TKLATTEELPDEFVV, the “Recognition of the peptide” value was “recognized in linear and in looped form”.
With TRMEDAMGQGQNSAD the “Recognition of the peptide” value was “only recognized in looped form”.
With VQMTKLATTEELPDE the “Recognition of the peptide” value was “recognized in linear and in looped form”.
In the case of VQRCASNKPHVLEDP, the “Recognition of the peptide” value was “recognized in linear and in looped form”.
VVQMTKLATTEELPD was tested, and the “Recognition of the peptide” value was “recognized in linear and in looped form”.
For VVQRCASNKPHVLED, the “Recognition of the peptide” value was “recognized in linear and in looped form”.

Tested on: rabbit serum obtained by immunizing with SARS-CoV strain Frankfurt 1
Assay type: binding

In order of rising “Rabbit serum linear peptides” value:
1. CICTVVQRCASNKPH  0.0
2. SCICTVVQRCASNKP  0.0
3. ATTEELPDEFVVVTA  0.1
4. CSCICTVVQRCASNK  0.1
5. FWFSLEIQDLEEPCT  0.1
6. ITRMEDAMGQGQNSA  0.1
7. LATTEELPDEFVVVT  0.1
8. MEDAMGQGQNSADPK  0.1
9. MTKLATTEELPDEFV  0.1
10. NQTNVVPPALHLVDP  0.1
11. QMTKLATTEELPDEF  0.1
12. QRCASNKPHVLEDPC  0.1
13. QTNVVPPALHLVDPQ  0.1
14. RCASNKPHVLEDPCK  0.1
15. RMEDAMGQGQNSADP  0.1
16. TITRMEDAMGQGQNS  0.1
17. TKLATTEELPDEFVV  0.1
18. VQRCASNKPHVLEDP  0.1
19. KLATTEELPDEFVVV  0.2
20. LCFLAFLLFLVLIML  0.2
21. PPALHLVDPQIQLTI  0.2
22. VVQRCASNKPHVLED  0.2
23. IFWFSLEIQDLEEPC  0.3
24. LIDFYLCFLAFLLFL  0.3
25. LTITRMEDAMGQGQN  0.3
26. LTLIDFYLCFLAFLL  0.3
27. VQMTKLATTEELPDE  0.3
28. VVQMTKLATTEELPD  0.3
29. YLCFLAFLLFLVLIM  0.3
30. FSLEIQDLEEPCTKV  0.4
31. IIFWFSLEIQDLEEP  0.4
32. LFLVLIMLIIFWFSL  0.4
33. LVLIMLIIFWFSLEI  0.4
34. MNELTLIDFYLCFLA  0.4
35. NELTLIDFYLCFLAF  0.4
36. PNQTNVVPPALHLVD  0.4
37. TLIDFYLCFLAFLLF  0.4
38. TRMEDAMGQGQNSAD  0.4
39. VLIMLIIFWFSLEIQ  0.4
40. LLFLVLIMLIIFWFS  0.5
41. IMLIIFWFSLEIQDL  0.9
42. PALHLVDPQIQLTIT  1.3
43. DPNQTNVVPPALHLV  2.3

In order of rising “Rabbit serum looped peptides” value:
1. CSCICTVVQRCASNK  0.0
2. IIFWFSLEIQDLEEP  0.0
3. IMLIIFWFSLEIQDL  0.1
4. DPNQTNVVPPALHLV  0.2
5. PNQTNVVPPALHLVD  0.2
6. VLIMLIIFWFSLEIQ  0.2
7. LCFLAFLLFLVLIML  0.3
8. LIDFYLCFLAFLLFL  0.3
9. LTITRMEDAMGQGQN  0.3
10. PPALHLVDPQIQLTI  0.3
11. YLCFLAFLLFLVLIM  0.3
12. ITRMEDAMGQGQNSA  0.4
13. MEDAMGQGQNSADPK  0.4
14. NQTNVVPPALHLVDP  0.4
15. PALHLVDPQIQLTIT  0.4
16. QTNVVPPALHLVDPQ  0.4
17. TLIDFYLCFLAFLLF  0.4
18. TRMEDAMGQGQNSAD  0.4
19. ATTEELPDEFVVVTA  0.5
20. CICTVVQRCASNKPH  0.5
21. FSLEIQDLEEPCTKV  0.5
22. FWFSLEIQDLEEPCT  0.5
23. IFWFSLEIQDLEEPC  0.5
24. KLATTEELPDEFVVV  0.5
25. LFLVLIMLIIFWFSL  0.5
26. LTLIDFYLCFLAFLL  0.5
27. MNELTLIDFYLCFLA  0.5
28. QRCASNKPHVLEDPC  0.5
29. RMEDAMGQGQNSADP  0.5
30. VQRCASNKPHVLEDP  0.5
31. VVQRCASNKPHVLED  0.5
32. LATTEELPDEFVVVT  0.6
33. LLFLVLIMLIIFWFS  0.6
34. LVLIMLIIFWFSLEI  0.6
35. MTKLATTEELPDEFV  0.6
36. QMTKLATTEELPDEF  0.6
37. RCASNKPHVLEDPCK  0.6
38. TITRMEDAMGQGQNS  0.6
39. TKLATTEELPDEFVV  0.6
40. VQMTKLATTEELPDE  0.6
41. VVQMTKLATTEELPD  0.6
42. NELTLIDFYLCFLAF  0.8
43. SCICTVVQRCASNKP  0.8
